In patent US20250074869A1, “AMINO-COMBRETASTATIN DERIVATIVE AND USE THEREOF” (priority 2020, published 2025):
Counter-ions that a name gives are not always drawn.

How the values were obtained:
[1] = Acute toxicity study in animals (oral LD50); settings: mouse, in vivo, male ICR mice, intragastric administration, observed 14 days, hydrochloride salts
Source text: Male ICR mice weighed 23±2 g, clean grade, were selected. The route of administration was intragastric (ig) administration, which is consistent with the intended oral route for clinical use.
Mice were randomly divided into 8 groups by weight: the blank control group, Example 1 group, Example 5 group, Example 11 group, Example 12 group, Example 13 group, Example 14 group and control group. Among these, the control group received amino-combretastatin serinamide hydrochloride as the control (hereinafter referred to as control).
Preparation of the compounds used in the example groups: The compounds obtained in Example 1, Example 3. Example 4. Example 5. Example 6. Example 7. Example 8. Example 9. Example 10. Example 11. Example 12, Example 13 and Example 14 were prepared into hydrochloride salts according to the method disclosed in Example 2.
Pre-treatment: […] were deprived of food but not water for 12 h before the study. and randomized into groups of 10 by body weight. The treatment groups were intragastrically administered once at 0.25 mL/10 g body weight, and the water control group received an equivalent amount of distilled water through intragastric administration. The LD100 value (the amount for 100% death), LD0 (the amount for 0 death) and the corresponding range r value between the dose groups were calculated, and LD50 was determined.
Study procedures: 160 mice were randomized into 8 groups of 20 mice by body weight. After deprivation of food but not water for 12 h before the study, each group was intragastrically given the compound once at 0.3 mL/10 g body weight. Since no death was observed after 12 h, the second dose was given. The control group received equivalent volumes of water. The daily dose of each group was calculated; the control group received equal volumes of water and was subjected to an acute toxicity study for observation and the body weight of the mice was recorded daily for 14 days.

[2] = tested on: human liver cancer cells Bel-7402; test: Efficacy study in nude mouse with xenograft tumor, Bel-7402; format: in vivo; settings: BALB/cA-nude mice, subcutaneous xenograft, 50 mg/kg intragastric once daily for 21 days, dosed as hydrochloride; for inhibition in vivo at 50 mg/kg: Mus musculus, Bel-7402, sc, 504 h, read-out: % tumor inhibition (D21) Bel-7402
Description: (§1) BALB/cA-nude mice aged 6 to 7 weeks were purchased from Shanghai Slac Laboratory Animal Co., Ltd. The nude mice were subcutaneously grafted with human liver cancer cells Bel-7402, colon cancer cells HT-29, gastric cancer cells SGC-7901 or non-small cell lung cancer cells A549. After the tumor grew to 100 to 250 mm^3, the animals were randomized (d0). The tumor volumes and body weights were measured twice or thrice a week, and the data were recorded. Tumor volume (V) was calculated as follows:
(§2) [formula] • wherein a and b represent length and width, respectively; T and C are the tumor volumes at the end of study; T0 and C0 are the tumor volumes at the start of study.
(§3) All samples were diluted to the desired concentration with 50% PEG400 in distilled water. The regimen was once daily for 21 days at 50 mg/kg mouse body weight through intragastric administration, and 50 mg/kg for the control. The compounds obtained in Examples 1, 3, 4, 5, 6, 7, 8, 9, 10, 11, 12, 13 and 14 and the control were prepared into corresponding hydrochloride as the dosing compounds according to the method disclosed in Example 2 to investigate their efficacy on human liver cancer cell Bel-7402, colon cancer cell HT-29, gastric cancer cell SGC-7901 or non-small cell lung cancer cell A549 xenograft tumors in nude mice and to compare the compounds with the control (prepared as in Example 16).

[3] = tested on: colon cancer cells HT-29; test: Efficacy study in nude mouse with xenograft tumor, HT-29; format: in vivo, human; settings: BALB/cA-nude mice, subcutaneous xenograft, 50 mg/kg intragastric once daily for 21 days, dosed as hydrochloride; for inhibition in vivo at 50 mg/kg: Mus musculus, HT-29, sc, 504 h, read-out: % tumor inhibition (D21) HT-29
Description: as §1, §2, §3

[4] = tested on: gastric cancer cells SGC-7901; test: Efficacy study in nude mouse with xenograft tumor, SGC-7901; format: in vivo, human; settings: BALB/cA-nude mice, subcutaneous xenograft, 50 mg/kg intragastric once daily for 21 days, dosed as hydrochloride; for inhibition in vivo at 50 mg/kg: Mus musculus, SGC-7901, sc, 504 h, read-out: % tumor inhibition (D21) SGC-7901
Description: as §1, §2, §3

[5] = tested on: non-small cell lung cancer cells A549; test: Efficacy study in nude mouse with xenograft tumor, A549; format: in vivo, human; settings: BALB/cA-nude mice, subcutaneous xenograft, 50 mg/kg intragastric once daily for 21 days, dosed as hydrochloride; for inhibition in vivo at 50 mg/kg: Mus musculus, A549, sc, 504 h, read-out: % tumor inhibition (D21) A549
Description: as §1, §2, §3

Question: Which LD50 at 14 days [1] does the source give for `CCCN(CCC)CCC(=O)Nc1cc(/C=C\c2cc(OC)c(OC)c(OC)c2)ccc1OCC(F)(F)F` [Hydrochloride of Example 7] here?
Answer: 1200 mg/kg

Question: What does the source list for `CCOc1ccc(/C=C\c2cc(OC)c(OC)c(OC)c2)cc1NC(=O)CCN(CCO)CCO` [Example 11, (Z)-1-(3,4,5-trimethoxyphenyl)-2-((3-(bis(2-hydroxyethyl)amino)propionamide)-4-ethoxyphenyl)ethylene]?
Answer: inhibition in vivo at 50 mg/kg [2]: 88%; inhibition in vivo at 50 mg/kg [3]: 89%; inhibition in vivo at 50 mg/kg [4]: 65%; inhibition in vivo at 50 mg/kg [5]: 63%

Question: Which inhibition in vivo at 50 mg/kg [2] does the source give for `CCCN(CCC)CCC(=O)Nc1cc(/C=C\c2cc(OC)c(OC)c(OC)c2)ccc1OCC(F)(F)F` [Example 7, (Z)-1-(3,4,5-trimethoxyphenyl)-2-((3-(bis(2-n-propyl)amino)propionamide)-4-trifluoroethoxyphenyl) ethylene] here?
Answer: 81%

Question: And the inhibition in vivo at 50 mg/kg [3]?
Answer: 79%

Question: What about the inhibition in vivo at 50 mg/kg [4] of the same compound?
Answer: 65%

Question: And the inhibition in vivo at 50 mg/kg [5]?
Answer: 66%

Question: Which LD50 at 14 days [1] does the source give for `CCCCN(CCCC)CCC(=O)Nc1cc(/C=C\c2cc(OC)c(OC)c(OC)c2)ccc1OCC(F)(F)F` [Hydrochloride of Example 9] here?
Answer: 1000 mg/kg

Question: For `CCOc1ccc(/C=C\c2cc(OC)c(OC)c(OC)c2)cc1NC(=O)CCNCC(OC)OC` [Hydrochloride of Example 14], which LD50 at 14 days [1] is on record?
Answer: 1000 mg/kg

Question: For `CCCN(CCC)CCC(=O)Nc1cc(/C=C\c2cc(OC)c(OC)c(OC)c2)ccc1OCC` [Example 1], which inhibition in vivo at 50 mg/kg [2] is on record?
Answer: 92%

Question: And the inhibition in vivo at 50 mg/kg [3]?
Answer: 93%

Question: What about the inhibition in vivo at 50 mg/kg [4] of the same compound?
Answer: 82%

Question: And the inhibition in vivo at 50 mg/kg [5]?
Answer: 69%

Question: Which results are given for `CCOc1ccc(/C=C\c2cc(OC)c(OC)c(OC)c2)cc1NC(=O)CCNCC(OC)OC` [Example 14, (Z)-1-(3,4,5-trimethoxyphenyl)-2-((3-(2,2-dimethoxyethylamino)propionamide)-4-ethoxyphenyl)ethylene]?
Answer: inhibition in vivo at 50 mg/kg [2]: 82%; inhibition in vivo at 50 mg/kg [3]: 71%; inhibition in vivo at 50 mg/kg [4]: 80%; inhibition in vivo at 50 mg/kg [5]: 66%

Question: What does the source list for `CCCCN(CCCC)CCC(=O)Nc1cc(/C=C\c2cc(OC)c(OC)c(OC)c2)ccc1OCC` [Example 5, (Z)-1-(3,4,5-trimethoxyphenyl)-2-((3-(bis(2-n-butyl)amino)propionamide)-4-ethoxyphenyl)ethylene]?
Answer: inhibition in vivo at 50 mg/kg [2]: 88%; inhibition in vivo at 50 mg/kg [3]: 82%; inhibition in vivo at 50 mg/kg [4]: 80%; inhibition in vivo at 50 mg/kg [5]: 63%

Question: Which LD50 at 14 days [1] does the source give for `CCCN(CCC)CCC(=O)Nc1cc(/C=C\c2cc(OC)c(OC)c(OC)c2)ccc1OCC` [Hydrochloride of Example 1, (Z)-1-(3,4,5-trimethoxyphenyl)-2-((3-(bis(2-n-propyl)amino)propionamide)-4-ethoxyphenyl)ethylene hydrochloride] here?
Answer: 1200 mg/kg

Question: Which results are given for `CCCN(CCC)CCC(=O)Nc1cc(/C=C\c2cc(OC)c(OC)c(OC)c2)ccc1OC` [Example 3, (Z)-1-(3,4,5-trimethoxyphenyl)-2-((3-(bis(2-n-propyl)amino)propionamide)-4-methoxyphenyl)ethylene]?
Answer: inhibition in vivo at 50 mg/kg [2]: 89%; inhibition in vivo at 50 mg/kg [3]: 88%; inhibition in vivo at 50 mg/kg [4]: 78%; inhibition in vivo at 50 mg/kg [5]: 65%

Question: For `CCCCN(CCCC)CCC(=O)Nc1cc(/C=C\c2cc(OC)c(OC)c(OC)c2)ccc1OC` [Hydrochloride of Example 6], which LD50 [1] is on record?
Answer: 900 mg/kg

Question: For `CCCN(CCC)CCC(=O)Nc1cc(/C=C\c2cc(OC)c(OC)c(OC)c2)ccc1OC(F)F` [Hydrochloride of Example 8], which LD50 at 14 days [1] is on record?
Answer: 1100 mg/kg

Question: For `CCOc1ccc(/C=C\c2cc(OC)c(OC)c(OC)c2)cc1NC(=O)CCN(CC)CC` [Example 4, (Z)-1-(3,4,5-trimethoxyphenyl)-2-((3-(bis(2-ethyl)amino)propionamide)-4-ethoxyphenyl)ethylene], which inhibition in vivo at 50 mg/kg [2] is on record?
Answer: 90%

Question: What about the inhibition in vivo at 50 mg/kg [3] of the same compound?
Answer: 91%

Question: What about the inhibition in vivo at 50 mg/kg [4] of the same compound?
Answer: 76%

Question: And the inhibition in vivo at 50 mg/kg [5]?
Answer: 67%

Question: Which inhibition in vivo at 50 mg/kg [2] does the source give for `CCCCN(CCCC)CCC(=O)Nc1cc(/C=C\c2cc(OC)c(OC)c(OC)c2)ccc1OC` [Example 6, (Z)-1-(3,4,5-trimethoxyphenyl)-2-((3-(bis(2-n-butyl)amino)propionamide)-4-methoxyphenyl)ethylene] here?
Answer: 89%

Question: What about the inhibition in vivo at 50 mg/kg [3] of the same compound?
Answer: 90%

Question: What about the inhibition in vivo at 50 mg/kg [4] of the same compound?
Answer: 81%

Question: What about the inhibition in vivo at 50 mg/kg [5] of the same compound?
Answer: 62%

Question: For `CCOc1ccc(/C=C\c2cc(OC)c(OC)c(OC)c2)cc1NC(=O)CCNCC(F)F` [Hydrochloride of Example 13], which LD50 [1] is on record?
Answer: 1000 mg/kg

Question: Which LD50 at 14 days [1] does the source give for `CCCN(CCC)CCC(=O)Nc1cc(/C=C\c2cc(OC)c(OC)c(OC)c2)ccc1OC` [Hydrochloride of Example 3] here?
Answer: 1000 mg/kg

Question: For `CCC(C)N(CCC(=O)Nc1cc(/C=C\c2cc(OC)c(OC)c(OC)c2)ccc1OC(F)F)C(C)CC` (stereo not shown) [Example 10, (Z)-1-(3,4,5-trimethoxyphenyl)-2-((3-(bis(2-n-butyl)amino)propionamide)-4-difluoromethoxyphenyl)ethylene], which “% tumor inhibition (D21) Bel-7402” value [2] is on record?
Answer: 86%

Question: What about the “% tumor inhibition (D21) HT-29” value [3] of the same compound?
Answer: 81%

Question: And the “% tumor inhibition (D21) SGC-7901” value [4]?
Answer: 73%

Question: And the “% tumor inhibition (D21) A549” value [5]?
Answer: 60%

Question: With `CCCCN(CCCC)CCC(=O)Nc1cc(/C=C\c2cc(OC)c(OC)c(OC)c2)ccc1OCC(F)(F)F` [Example 9, (Z)-1-(3,4,5-trimethoxyphenyl)-2-((3-(bis(2-n-butyl)amino)propionamide)-4-trifluoroethoxyphenyl)ethylene] as the compound, how does the inhibition in vivo at 50 mg/kg [2] read?
Answer: 79%

Question: And the inhibition in vivo at 50 mg/kg [3]?
Answer: 85%

Question: What about the inhibition in vivo at 50 mg/kg [4] of the same compound?
Answer: 80%

Question: And the inhibition in vivo at 50 mg/kg [5]?
Answer: 61%

Question: Which inhibition in vivo at 50 mg/kg [2] does the source give for `CCOc1ccc(/C=C\c2cc(OC)c(OC)c(OC)c2)cc1NC(=O)CCNCC(F)F` [Example 13, (Z)-1-(3,4,5-trimethoxyphenyl)-2-((3-(2,2-difluoroethylamino)propionamide)-4-ethoxyphenyl)ethylene] here?
Answer: 82%

Question: And the inhibition in vivo at 50 mg/kg [3]?
Answer: 77%

Question: What about the inhibition in vivo at 50 mg/kg [4] of the same compound?
Answer: 72%

Question: And the inhibition in vivo at 50 mg/kg [5]?
Answer: 63%

Question: Which LD50 [1] does the source give for `COc1ccc(/C=C\c2cc(OC)c(OC)c(OC)c2)cc1NC(=O)CCN(CCO)CCO` [Hydrochloride of Example 12] here?
Answer: 1100 mg/kg

Question: Which LD50 at 14 days [1] does the source give for `CCOc1ccc(/C=C\c2cc(OC)c(OC)c(OC)c2)cc1NC(=O)CCN(CC)CC` [Hydrochloride of Example 4] here?
Answer: 1100 mg/kg

Question: For `CCCCN(CCCC)CCC(=O)Nc1cc(/C=C\c2cc(OC)c(OC)c(OC)c2)ccc1OCC` [Hydrochloride of Example 5], which LD50 at 14 days [1] is on record?
Answer: 1200 mg/kg

Question: For `CCOc1ccc(/C=C\c2cc(OC)c(OC)c(OC)c2)cc1NC(=O)CCN(CCO)CCO` [Hydrochloride of Example 11], which LD50 at 14 days [1] is on record?
Answer: 1100 mg/kg

Question: For `CCCN(CCC)CCC(=O)Nc1cc(/C=C\c2cc(OC)c(OC)c(OC)c2)ccc1OC(F)F` [Example 8, (Z)-1-(3,4,5-trimethoxyphenyl)-2-((3-(bis(2-n-propyl)amino)propionamide)-4-difluoromethoxyphenyl)ethylene], which inhibition in vivo at 50 mg/kg [2] is on record?
Answer: 90%

Question: And the inhibition in vivo at 50 mg/kg [3]?
Answer: 88%

Question: What about the inhibition in vivo at 50 mg/kg [4] of the same compound?
Answer: 71%

Question: What about the inhibition in vivo at 50 mg/kg [5] of the same compound?
Answer: 67%

Question: What does the source list for `COc1ccc(/C=C\c2cc(OC)c(OC)c(OC)c2)cc1NC(=O)CCN(CCO)CCO` [Example 12, (Z)-1-(3,4,5-trimethoxyphenyl)-2-((3-(bis(2-hydroxyethyl)amino)propionamide)-4-methoxyphenyl)ethylene]?
Answer: inhibition in vivo at 50 mg/kg [2]: 79%; inhibition in vivo at 50 mg/kg [3]: 79%; inhibition in vivo at 50 mg/kg [4]: 77%; inhibition in vivo at 50 mg/kg [5]: 58%
